Reference: patent publication US20020058275A1, “Compositions, kits, and methods for effecting adenine nucleotide modulation of DNA mismatch recognition proteins” (Thomas Jefferson University, priority 1997, published 2002)
One block for each molecule: values may come before it.

Assays:
[1] = target: T1, hMSH2:hMSH6 heterodimer (Homo sapiens, UniProt P43246+P52701); experiment: Gel mobility shift assay of adenine nucleotide effects on mismatch binding and release; type: biochemical; conditions: for effect on G/T mismatch binding / release of the heterodimer from G/T-mismatched DNA substrate: nucleotide added to the mismatch binding reaction mixture, FIG. 3 at 25 and 250 micromolar; for IC50: G/T-mismatched DNA substrate, read-out: IC50 (concentration required to cause release of 50% of a population of heterodimers from a G/T-mismatched DNA substrate); for S-shifted material re-associated with the DNA as NS-shifted heterodimer: increasing amounts of nucleotide added
T1 construct: made in house; host or cells: SF9 insect cells, baculovirus (pFastBac dual)

[2] = target: T1, hMSH2:hMSH6 heterodimer; experiment: ADP exchange assay (filter binding of [3H]-ADP); conditions: excess non-labeled ATP
Protocol: The ADP-ATP exchange rate was determined in a reaction mixture which comprised Buffer Q, 2.3 micromolar [^3H]-ADP, and 60 nanomolar hMSH2:hMSH6 heterodimer. Buffer Q comprised 25 millimolar HEPES which had been adjusted to pH 7.8 using NaOH, 75 millimolar NaCl, 10 millimolar MgCl2, 1 millimolar DTT, and 15% (v/v) glycerol. This reaction mixture was incubated for ten minutes at room temperature. 240 nanomolar G/T-mismatched 39-base pair DNA substrate was added to the reaction mixture, and the incubation was continued for an additional ten minutes. The final volume of the reaction mixture was 10 microliters. […] Reactions were incubated at 25° C. for a selected time and then halted by diluting the reaction mixture with 4 milliliters of an ice-cold stop buffer comprising 25 millimolar HEPES which had been adjusted to pH 7.8 using NaOH, 100 millimolar NaCl, and 10 millimolar MgCl2.
Each halted reaction mixture was immediately filtered on a HAWP nitrocellulose membrane (Millipore, Bedford, Mass.) and washed thrice with 4 milliliters of the ice-cold stop buffer. […] Radioactivity retained on the filters was quantified using a Beckman scintillation counter. […] The amount of [^3H]-ADP retained on the membrane to which the control reaction mixture was applied was considered to correspond to the amount of radioactivity retained when 100% of the complex had [^3H]-ADP bound thereto.

[3] = target: T2, hMSH2:hMSH6 heterodimer ATPase (Homo sapiens, UniProt P43246+P52701); experiment: ATPase assays (steady state and initial velocity); type: biochemical
T2 construct: made in house; host or cells: SF9 insect cells, baculovirus (pFastBac dual)
Protocol: Buffer P comprised 40 millimolar HEPES which had been adjusted to pH 7.8 using NaOH, 75 millimolar NaCl, 10 millimolar MgCl2, 1.75 millimolar DTT, and 0.075 millimolar EDTA, and 15% (v/v) glycerol. Steady state reaction measurements were made using 60 nanomolar hMSH2:hMSH6 heterodimer and either 240 nanomolar homoduplex 39-base pair DNA substrate or 240 nanomolar G/T mismatched 39-base pair DNA substrate. Reaction mixtures were incubated at 37° C. for thirty minutes, and the reaction was stopped by addition of 400 microliters of a solution comprising 10% (w/v) activated charcoal (Sigma Chemical Co., St. Louis, Mo.) and 1 millimolar EDTA. Charcoal was pelleted by centrifuging the mixture at 10,000 rotations per minute for ten minutes. The 32p content of duplicate 100 microliter aliquots of the supernatant was assessed by liquid scintillation.
Aliquots were removed at selected times and electrophoresed as described herein. A control aliquot was removed and prepared for electrophoresis prior to addition of the MgCl2-containing Buffer P to the reaction mixture.
TLC was performed as previously described (Fishel et al., 1988, Proc. Natl. Acad. Sci. USA 85:36-40).

[4] = test system: G/T-mismatched 81-base pair DNA substrate; experiment: Gel mobility shift and DNase footprint assays of heterodimer binding to mismatched DNA
Protocol: (§1) Gel mobility shift assays were performed by incubating a hMSH2:hMSH6 heterodimer and 9 femtomoles of either the ^32P-labeled homologous 81-base pair DNA substrate or the ^32P-labeled G/T-mismatched 81-base pair DNA substrate in a buffer comprising 50 millimolar NaCl, 25 millimolar HEPES buffer which had been adjusted to pH 7.5 using NaOH, 1 millimolar DTT, 0.01 millimolar EDTA, and 15% (v/v) glycerol. The buffer included 10 nanograms per microliter of poly dI-dC (Pharmacia LKB Biotechnology Inc., Piscataway, N.J.). […] In certain experiments described herein, the incubation mixture further comprised selected concentrations of nucleotides or non-labeled DNA. In other experiments described herein, the incubation mixture further comprised 1 millimolar MgCl2 or 5 millimolar EDTA. […] Each incubation mixture was applied to a gel comprising 4% (w/v) polyacrylamide (29:1 ratio of acrylamide:bis-acrylamide) 4% (v/v) glycerol, 40 millimolar Tris acetate buffer (pH 7.8), and 1 millimolar EDTA. Electrophoresis was performed by applying 200 volts to the gel for two hours. Following electrophoresis, each gel was dried and quantitated using a phosphoimaging device obtained from Molecular Dynamics.
Incubation of the hMSH2:hMSH6 heterodimer with ^32P-labeled DNA substrates was performed as described for gel mobility shift assays, except that 18 femtomoles of 32p-labeled DNA substrate was used in each assay. Following incubation, 80 microliters of a buffer comprising 50 millimolar NaCl, 25 millimolar HEPES buffer which had been adjusted to pH 7.8 using NaOH, 1 millimolar DTT, 10 nanograms per microliter poly dI-dC, 1.25 millimolar CaCl2, 3.1 millimolar MgCl2, 10% (v/v) glycerol, and 33 picograms per microliter DNase (Boehringer Mannheim, Indianapolis, Ind.) was added to each incubation mixture. […]

[5] = test system: homologous 81-base pair DNA substrate; experiment: Gel mobility shift and DNase footprint assays of heterodimer binding to homoduplex DNA; conditions: homoduplex concentrations greater than 400 nanomolar
Protocol: as §1, with “Dynamics. […]” for “Dynamics.”

[6] = target: T3, hMSH2:hMSH6 heterodimer (Homo sapiens, UniProt P43246;P52701 P43246:1-934,P52701:1-1360); experiment: footprint; DNase footprint; about 25 nt asymmetrically protected on both strands; no adenine nucleotide; conditions: tags: 6xHis at N-terminus of hMSH6; Sf9 baculovirus (pFastBac dual) co-expression; label: 32P 5' end; single G/T mismatch
Protocol: (§2) The apparent dissociation constant (Kd) was determined in a simple buffer system comprising neither an adenine nucleotide nor magnesium using the homologous 81-base pair DNA substrate and the G/T-mismatched 81-base pair DNA substrate described herein.

[7] = target: T3, hMSH2:hMSH6 heterodimer; experiment: EMSA; apparent Kd; no adenine nucleotide, no Mg; 50 mM NaCl, HEPES pH 7.5, poly dI-dC, 37 C; conditions: tags: 6xHis at N-terminus of hMSH6; Sf9 baculovirus (pFastBac dual) co-expression; label: 32P 5' end; single G/T mismatch
Protocol: (§3) The buffer included 10 nanograms per microliter of poly dI-dC (Pharmacia LKB Biotechnology Inc., Piscataway, N.J.). […] In certain experiments described herein, the incubation mixture further comprised selected concentrations of nucleotides or non-labeled DNA. In other experiments described herein, the incubation mixture further comprised 1 millimolar MgCl₂ or 5 millimolar EDTA. […] Each incubation mixture was applied to a gel comprising 4% (w/v) polyacrylamide (29:1 ratio of acrylamide:bis-acrylamide) 4% (v/v) glycerol, 40 millimolar Tris acetate buffer (pH 7.8), and 1 millimolar EDTA. Electrophoresis was performed by applying 200 volts to the gel for two hours. Following electrophoresis, each gel was dried and quantitated using a phosphoimaging device obtained from Molecular Dynamics.
as §2

[8] = target: T3, hMSH2:hMSH6 heterodimer; experiment: EMSA; no NS product observed with 39-bp homoduplex; conditions: tags: 6xHis at N-terminus of hMSH6; Sf9 baculovirus (pFastBac dual) co-expression; fully complementary homoduplex
Protocol: as §3

[9] = 0.2 millimolar ATP, 1 millimolar MgCl2, ADP 0 to 3.2 millimolar
[10] = ATP alone as a substrate (absence of DNA)
[11] = ATP and G/C-mismatched DNA as substrates
[12] = ATP and G/T-mismatched DNA as substrates

T1 sequence (P43246 whole entry): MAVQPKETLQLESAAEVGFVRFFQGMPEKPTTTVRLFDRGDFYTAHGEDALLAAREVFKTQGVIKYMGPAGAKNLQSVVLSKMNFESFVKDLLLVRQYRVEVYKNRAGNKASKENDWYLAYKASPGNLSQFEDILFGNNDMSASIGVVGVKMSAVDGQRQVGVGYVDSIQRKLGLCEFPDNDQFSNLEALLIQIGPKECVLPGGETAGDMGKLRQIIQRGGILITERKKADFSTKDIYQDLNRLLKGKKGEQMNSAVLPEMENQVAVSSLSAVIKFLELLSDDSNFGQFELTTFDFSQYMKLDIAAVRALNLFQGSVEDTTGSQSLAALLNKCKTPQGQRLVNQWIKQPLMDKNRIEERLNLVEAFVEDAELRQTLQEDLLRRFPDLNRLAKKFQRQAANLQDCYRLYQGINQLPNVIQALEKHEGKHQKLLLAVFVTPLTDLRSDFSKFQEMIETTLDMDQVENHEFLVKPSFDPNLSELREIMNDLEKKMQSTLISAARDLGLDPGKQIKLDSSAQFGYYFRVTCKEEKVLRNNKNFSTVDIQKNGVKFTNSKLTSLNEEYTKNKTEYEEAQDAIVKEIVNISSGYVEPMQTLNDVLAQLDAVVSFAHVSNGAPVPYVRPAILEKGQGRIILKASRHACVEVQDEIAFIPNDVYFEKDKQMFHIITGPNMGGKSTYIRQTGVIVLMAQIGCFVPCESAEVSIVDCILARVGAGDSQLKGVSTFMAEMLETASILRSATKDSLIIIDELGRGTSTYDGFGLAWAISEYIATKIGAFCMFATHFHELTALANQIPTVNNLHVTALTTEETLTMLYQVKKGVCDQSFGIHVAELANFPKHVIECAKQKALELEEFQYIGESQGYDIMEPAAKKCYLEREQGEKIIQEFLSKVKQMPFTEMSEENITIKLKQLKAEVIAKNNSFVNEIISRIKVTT
T1 sequence (P52701 whole entry): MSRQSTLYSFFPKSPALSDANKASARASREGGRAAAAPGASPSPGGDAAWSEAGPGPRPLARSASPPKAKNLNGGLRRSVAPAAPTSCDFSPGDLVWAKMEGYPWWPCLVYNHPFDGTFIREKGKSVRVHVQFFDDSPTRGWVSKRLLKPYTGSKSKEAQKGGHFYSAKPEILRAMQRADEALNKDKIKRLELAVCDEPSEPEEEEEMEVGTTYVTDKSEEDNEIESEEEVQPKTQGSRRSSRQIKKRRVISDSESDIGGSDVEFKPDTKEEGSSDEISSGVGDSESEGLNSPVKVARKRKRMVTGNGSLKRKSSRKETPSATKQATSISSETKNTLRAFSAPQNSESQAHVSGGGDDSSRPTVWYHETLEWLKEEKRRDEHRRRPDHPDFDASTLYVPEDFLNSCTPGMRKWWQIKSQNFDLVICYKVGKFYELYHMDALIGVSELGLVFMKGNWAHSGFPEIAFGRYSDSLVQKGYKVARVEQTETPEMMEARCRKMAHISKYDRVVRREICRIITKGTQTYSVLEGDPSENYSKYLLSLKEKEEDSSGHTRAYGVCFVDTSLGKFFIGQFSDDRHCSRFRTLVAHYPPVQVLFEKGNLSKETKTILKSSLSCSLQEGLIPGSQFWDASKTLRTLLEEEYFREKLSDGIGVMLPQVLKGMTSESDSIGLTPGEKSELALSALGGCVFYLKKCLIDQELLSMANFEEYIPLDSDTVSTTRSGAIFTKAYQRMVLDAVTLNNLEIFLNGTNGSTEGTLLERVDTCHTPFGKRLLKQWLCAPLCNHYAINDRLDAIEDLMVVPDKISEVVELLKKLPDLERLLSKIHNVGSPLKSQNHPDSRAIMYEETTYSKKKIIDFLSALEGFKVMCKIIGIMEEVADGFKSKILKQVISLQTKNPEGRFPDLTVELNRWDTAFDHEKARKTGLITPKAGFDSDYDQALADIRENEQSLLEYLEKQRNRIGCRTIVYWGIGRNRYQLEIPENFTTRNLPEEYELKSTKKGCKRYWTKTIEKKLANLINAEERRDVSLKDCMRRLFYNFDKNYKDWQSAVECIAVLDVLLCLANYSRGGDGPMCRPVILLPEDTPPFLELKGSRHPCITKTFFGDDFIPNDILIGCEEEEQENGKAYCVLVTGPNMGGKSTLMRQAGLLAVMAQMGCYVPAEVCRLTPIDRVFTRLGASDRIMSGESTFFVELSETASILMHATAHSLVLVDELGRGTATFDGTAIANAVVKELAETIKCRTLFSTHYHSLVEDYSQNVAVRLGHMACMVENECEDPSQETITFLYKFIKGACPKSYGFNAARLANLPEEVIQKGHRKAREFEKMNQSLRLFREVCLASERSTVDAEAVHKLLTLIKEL
T2 sequence (P43246 whole entry): as the sequence (P43246 whole entry) above
T2 sequence (P52701 whole entry): as the sequence (P52701 whole entry) above
T3 sequence (P43246 whole entry, chain 1 of 2): as the sequence (P43246 whole entry) above
T3 sequence (P52701 whole entry, chain 2 of 2): as the sequence (P52701 whole entry) above

excess of ADP giving approximately complete reversal of ATP-caused substrate release [1, 9]: 16 fold
excess of ADP to ATP giving reversal of approximately half of the ATP-caused substrate release [1, 9]: 2- to 3 fold
effect on G/T mismatch binding / release of the heterodimer from G/T-mismatched DNA substrate [1]: increased binding affinity
half-life of the ADP-bound heterodimer ([2]; absence of DNA): greater than eight hundred
half-life of the ADP-bound heterodimer ([2]; presence of G/T-mismatched DNA substrate): less than two
Molecule: Nc1ncnc2c1ncn2[C@@H]1O[C@H](COP(=O)(O)OP(=O)(O)O)[C@@H](O)[C@H]1O [ADP]

Molecule: Nc1ncnc2c1ncn2[C@@H]1O[C@H](COP(=O)(O)OP(=O)(O)CP(=O)(O)O)[C@@H](O)[C@H]1O [AMP-PCP, adenyl-(beta-, gamma-methylene)-diphosphonate]
effect on G/T mismatch binding / release of the heterodimer from G/T-mismatched DNA substrate [1]: Failure of AMP-PNP and AMP-PCP to stimulate release

Molecule: Nc1ncnc2c1ncn2[C@@H]1O[C@H](COP(=O)(O)OP(=O)(O)NP(=O)(O)O)[C@@H](O)[C@H]1O [AMP-PNP, adenylyl-imidodiphosphate]
effect on G/T mismatch binding / release of the heterodimer from G/T-mismatched DNA substrate [1]: Failure of AMP-PNP and AMP-PCP to stimulate release

calculated Kcat for ATP ([3]; 37° C.): > 0.333 s⁻¹
Km [3, 10]: ~10 µM
kcat [3, 10]: about 0.9 minute^1
Km [3, 11]: ~23 µM
kcat [3, 11]: about 7.4 minute-^1
Km [3, 12]: ~46 µM
kcat [3, 12]: about 26 minute-^1
mismatched DNA substrate binding activity recovered after magnesium addition ([1]; 15 micromolar nucleotide, ten minutes of incubation at 37° C.): ~70%
IC50 [1]: ~3000 nM
effect on binding of the heterodimer to homoduplex DNA (NS binding) ([1]; homoduplex DNA): not affected
S-shifted material re-associated with the DNA as NS-shifted heterodimer [1]: approximately 15%
Molecule: Nc1ncnc2c1ncn2[C@@H]1O[C@H](COP(=O)(O)OP(=O)(O)OP(=O)(O)O)[C@@H](O)[C@H]1O [ATP]

effect on G/T mismatch binding / release of the heterodimer from G/T-mismatched DNA substrate [1]: caused release
Molecule: Nc1ncnc2c1ncn2[C@H]1C[C@H](O)[C@@H](COP(=O)(O)OP(=O)(O)OP(=O)(O)O)O1 [dATP, 2′-deoxy adenosine triphosphate]

Molecule: Adenosine-5′-O-3-thiotriphosphate [ATP-gamma-S]
IC50 [1]: 3000 nM
mismatched DNA substrate binding activity recovered after magnesium addition ([1]; following incubation at 37° C., time not stated): about 22%
S-shifted material re-associated with the DNA as NS-shifted heterodimer [1]: approximately 15%

Kd ([4]; buffer comprising neither an adenine nucleotide nor magnesium, gel shift and DNase footprint assays, read-out: apparent dissociation constant (Kd) for G/T mismatches): ~20 nM
efficiency of binding to a G/T mismatch relative to hMSH2 alone ([4]; compared with literature values for hMSH2 alone): at least ten
saturability of binding of non-mismatched DNA [5]: not saturable
Molecule: hMSH2:hMSH6 heterodimer: purified human mismatch recognition complex of hMSH2 and six-histidine-tagged hMSH6, overexpressed in SF9 insect cells
half-life of the G/T-mismatched DNA substrate-bound heterodimer ([4]; 400-fold excess of non-labeled homoduplex DNA, no ATP): greater than ten

B1: G/T-mismatched 81-bp duplex (dsDNA)
DNA 1: AAAGCTGGAGCTGAAGCTTAGCTTAGGATCATCGAGGATCGAGCTCGGTGCAATTCAGCGGTACCCAATTCGCCCTATAGT
DNA 2: ACTATAGGGCGAATTGGGTACCGCTGAATTGCACCGAGCTTGATCCTCGATGATCCTAAGCTAAGCTTCAGCTCCAGCTTT
modifications: [G41 (strand 1) opposite T41 (strand 2), G/T mismatch]
Kd [6]: 20 nM
Kd [7]: 20 nM

B2: homologous 39-bp duplex (dsDNA)
DNA 1: CGGCGAATTCCACCAAGCTTGATCGCTCGAGGTACCAGG
DNA 2: CCTGGTACCTCGAGCGATCAAGCTTGGTGGAATTCGCCG
binding result [8]: no binding
